Source: paper PMC11951252 (RSC Advances, 2025)

Columns and labels:
MCF-7 = assay: Antiproliferative MTT assay, MCF-7; format: cell-based, human; conditions: for IC50: Homo sapiens, MCF7, read-out: Antiproliferative activity IC50 ± SEM, MCF-7
PC-3 = assay: Antiproliferative MTT assay, PC-3; format: cell-based; conditions: Homo sapiens, PC-3, read-out: Antiproliferative activity IC50 ± SEM, PC-3
HCT-116 = assay: Antiproliferative MTT assay, HCT-116; format: cell-based; conditions: Homo sapiens, HCT-116, read-out: Antiproliferative activity IC50 ± SEM, HCT-116
[1] = tested on: four human cancer cell lines (HCT-116, PC-3, MCF-7, MDAMB-231); assay: Antiproliferative MTT assay, average over four cancer cell lines; format: cell-based; conditions: for GI50: average IC50 of the four cancer cell lines; for fold less potent than compound 4n (GI50): ratio of GI50 values
EGFR-TK = EGFR-TK (Homo sapiens, UniProt P00533); assay: EGFR inhibitory assay; format: biochemical
HER2-TK = HER2-TK (Homo sapiens, UniProt P04626); assay: HER2 inhibitory assay; format: biochemical; conditions: HER2 IC50 ± SEM, Table 3
MDAMB-231 = assay: Antiproliferative MTT assay, MDAMB-231; format: cell-based, human

Sequence of EGFR-TK (P00533 669-1210): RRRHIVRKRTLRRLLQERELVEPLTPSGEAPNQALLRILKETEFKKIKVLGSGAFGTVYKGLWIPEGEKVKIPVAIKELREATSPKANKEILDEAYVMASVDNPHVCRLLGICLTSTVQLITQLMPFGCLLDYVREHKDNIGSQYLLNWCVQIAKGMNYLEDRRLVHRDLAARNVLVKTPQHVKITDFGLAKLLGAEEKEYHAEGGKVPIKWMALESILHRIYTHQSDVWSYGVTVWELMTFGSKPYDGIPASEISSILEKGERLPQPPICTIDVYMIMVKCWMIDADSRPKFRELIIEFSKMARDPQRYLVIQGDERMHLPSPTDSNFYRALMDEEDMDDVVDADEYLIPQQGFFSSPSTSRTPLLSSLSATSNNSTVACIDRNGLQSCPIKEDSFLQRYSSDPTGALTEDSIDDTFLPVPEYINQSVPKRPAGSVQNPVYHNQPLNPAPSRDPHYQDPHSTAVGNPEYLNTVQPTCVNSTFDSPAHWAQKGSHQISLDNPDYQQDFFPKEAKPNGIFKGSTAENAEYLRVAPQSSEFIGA
Sequence of HER2-TK (P04626 676-1255 limits assumed): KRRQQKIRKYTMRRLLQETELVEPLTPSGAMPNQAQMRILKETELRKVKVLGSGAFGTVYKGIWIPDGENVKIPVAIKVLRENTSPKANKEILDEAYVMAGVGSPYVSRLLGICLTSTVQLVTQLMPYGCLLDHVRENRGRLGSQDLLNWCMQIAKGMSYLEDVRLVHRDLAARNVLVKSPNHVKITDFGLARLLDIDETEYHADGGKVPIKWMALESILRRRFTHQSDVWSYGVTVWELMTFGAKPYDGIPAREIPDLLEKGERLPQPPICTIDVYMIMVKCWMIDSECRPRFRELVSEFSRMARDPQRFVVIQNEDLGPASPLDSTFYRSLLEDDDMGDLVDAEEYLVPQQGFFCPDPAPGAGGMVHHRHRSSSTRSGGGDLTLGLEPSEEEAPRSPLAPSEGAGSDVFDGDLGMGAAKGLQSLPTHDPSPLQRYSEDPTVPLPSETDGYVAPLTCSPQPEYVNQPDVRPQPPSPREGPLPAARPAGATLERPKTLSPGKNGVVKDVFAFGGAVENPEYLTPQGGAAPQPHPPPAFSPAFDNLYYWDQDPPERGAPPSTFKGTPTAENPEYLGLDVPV

Row | IC50 (MCF-7) [µM] | IC50 (PC-3) [µM] | IC50 (HCT-116) [µM] | GI50 ([1]; Homo sapiens) [µM] | Compound | other results
1 | 65.5 ± 3.5 | 32 ± 2.1 | 79.6 ± 3.8 | – | COc1ccc(N2CCN(CC(=O)Nc3ccc(C(=O)C=Cc4ccc(C)cc4)cc3)CC2)cc1 [4b, 2-(4-(4-Methoxyphenyl)piperazin-1-yl)-N-(4-(3-(p-tolyl)acryloyl)phenyl)acetamide] | –
2 | 42.9 ± 2.5 | 66.8 ± 3.5 | 27.4 ± 1.9 | – | COc1ccc(C=CC(=O)c2ccc(NC(=O)CN3CCN(c4ccc(Cl)cc4)CC3)cc2)cc1 [4j, 2-(4-(4-Chlorophenyl)piperazin-1-yl)-N-(4-(3-(4-methoxyphenyl)acryloyl)phenyl)acetamide] | –
3 | 19.6 ± 1.4 | 46.3 ± 2.5 | 32.1 ± 2.1 | – | COc1ccc(N2CCN(CC(=O)Nc3ccc(C4=NN(C(C)=O)C(c5ccccc5)C4)cc3)CC2)cc1 (stereo not shown) [5a, N-(4-(1-Acetyl-5-phenyl-4,5-dihydro-1H-pyrazol-3-yl)phenyl)-2-(4-(4-methoxyphenyl)piperazin-1-yl)acetamide] | –
4 | 80.8 ± 3.9 | 86.4 ± 4.3 | 75.4 ± 4.1 | 76 | O=C(CN1CCN(c2ccc(Cl)cc2)CC1)Nc1ccc(C(=O)C=Cc2ccc(Br)cc2)cc1 [4l, N-(4-(3-(4-Bromophenyl)acryloyl)phenyl)-2-(4-(4-chlorophenyl)piperazin-1-yl)acetamide] | fold less potent than compound 4n (GI50) [1]: 11
5 | > 100 | > 100 | > 100 | – | COc1ccc(N2CCN(CC(=O)Nc3ccc(C(=O)C=Cc4ccc(Cl)cc4Cl)cc3)CC2)cc1 [4f, N-(4-(3-(2,4-Dichlorophenyl)acryloyl)phenyl)-2-(4-(4-methoxyphenyl)piperazin-1-yl)acetamide] | –
6 | 13.8 ± 1.1 | 21.9 ± 1.6 | 24.9 ± 1.8 | 18 | COc1ccc(N2CCN(CC(=O)Nc3ccc(C4=NN(C(C)=O)C(c5ccc(C)cc5)C4)cc3)CC2)cc1 (stereo not shown) [5b, N-(4-(1-Acetyl-5-(p-tolyl)-4,5-dihydro-1H-pyrazol-3-yl)phenyl)-2-(4-(4-methoxy-phenyl)piperazin-1-yl)acetamide] | –
7 | – | 11.5 ± 0.9 | – | 8 | CNC(=O)c1cc(Oc2ccc(NC(=O)Nc3ccc(Cl)c(C(F)(F)F)c3)cc2)ccn1 [Sorafenib, reference compound] | GI50 [1]: 7 µM
8 | 17.9 ± 1.4 | 42.9 ± 2.5 | 34.8 ± 2.2 | – | COc1cc(C=CC(=O)c2ccc(NC(=O)CN3CCN(c4ccc(Cl)cc4)CC3)cc2)cc(OC)c1OC [4k, 2-(4-(4-Chlorophenyl)piperazin-1-yl)-N-(4-(3-(3,4,5-trimethoxyphenyl)acryloyl)phenyl)acetamide] | –
9 | 54.7 ± 3.1 | 67.8 ± 3.6 | 62.5 ± 3.4 | – | CC(=O)N1N=C(c2ccc(NC(=O)CN3CCN(c4ccc(Cl)cc4)CC3)cc2)CC1c1ccc(C)cc1 (stereo not shown) [5i, N-(4-(1-Acetyl-5-(p-tolyl)-4,5-dihydro-1H-pyrazol-3-yl)phenyl)-2-(4-(4-chloro-phenyl)piperazin-1-yl)acetamide] | –
10 | 15.2 ± 1.3 | 29.6 ± 1.9 | 26.8 ± 2 | – | COc1ccc(N2CCN(CC(=O)Nc3ccc(C4=NN(C(C)=O)C(c5ccc(Br)cc5)C4)cc3)CC2)cc1 (stereo not shown) [5e, N-(4-(1-Acetyl-5-(4-bromophenyl)-4,5-dihydro-1H-pyrazol-3-yl)phenyl)-2-(4-(4-methoxyphenyl)piperazin-1-yl)acetamide] | –
11 | 40.8 ± 2.4 | 45.7 ± 2.6 | 52.8 ± 3 | – | COc1cc(C2CC(c3ccc(NC(=O)CN4CCN(c5ccc(Cl)cc5)CC4)cc3)=NN2C(C)=O)cc(OC)c1OC (stereo not shown) [5k, N-(4-(1-Acetyl-5-(3,4,5-trimethoxyphenyl)-4,5-dihydro-1H-pyrazol-3-yl)phenyl)-2-(4-(4-chlorophenyl)piperazin-1-yl)acetamide] | –
12 | 47.5 ± 2.6 | 57.8 ± 3.3 | 54 ± 3.2 | – | COc1ccc(N2CCN(CC(=O)Nc3ccc(C4=NN(C(C)=O)C(c5ccc(Cl)cc5Cl)C4)cc3)CC2)cc1 (stereo not shown) [5f, N-(4-(1-Acetyl-5-(2,4-dichlorophenyl)-4,5-dihydro-1H-pyrazol-3-yl)phenyl)-2-(4-(4-methoxyphenyl)piperazin-1-yl)acetamide] | –
13 | 94 ± 4.9 | > 100 | > 100 | 100 | COc1ccc(C2CC(c3ccc(NC(=O)CN4CCN(c5ccc(Cl)cc5)CC4)cc3)=NN2C(C)=O)cc1 (stereo not shown) [5j, N-(4-(1-Acetyl-5-(4-methoxyphenyl)-4,5-dihydro-1H-pyrazol-3-yl)phenyl)-2-(4-(4-chlorophenyl)piperazin-1-yl)acetamide] | –
14 | 71.3 ± 3.6 | 76.7 ± 3.9 | 69.9 ± 3.7 | – | CC(=O)N1N=C(c2ccc(NC(=O)CN3CCN(c4ccc(Cl)cc4)CC3)cc2)CC1c1ccc(Cl)cc1Cl (stereo not shown) [5m, N-(4-(1-Acetyl-5-(2,4-dichlorophenyl)-4,5-dihydro-1H-pyrazol-3-yl)phenyl)-2-(4-(4-chlorophenyl)piperazin-1-yl)acetamide] | –
15 | 23.9 ± 1.7 | 36.8 ± 2.2 | 39.6 ± 2.3 | – | CC(=O)N1N=C(c2ccc(NC(=O)CN3CCN(c4ccc(Cl)cc4)CC3)cc2)CC1c1ccco1 (stereo not shown) [5n, N-(4-(1-Acetyl-5-(furan-2-yl)-4,5-dihydro-1H-pyrazol-3-yl)phenyl)-2-(4-(4-chlorophenyl)piperazin-1-yl)acetamide] | –
16 | 91.6 ± 4.6 | > 100 | 86.1 ± 4.3 | 90 | Cc1ccc(C=CC(=O)c2ccc(NC(=O)CN3CCN(c4ccc(Cl)cc4)CC3)cc2)cc1 [4i, 2-(4-(4-Chlorophenyl)piperazin-1-yl)-N-(4-(3-(p-tolyl)acryloyl)phenyl)acetamide] | fold less potent than compound 4n (GI50) [1]: 13
17 | 3.78 ± 0.2 | 7.48 ± 0.6 | 8.06 ± 0.7 | 6 | COc1ccc(N2CCN(CC(=O)Nc3ccc(C4=NN(C(C)=O)C(c5ccco5)C4)cc3)CC2)cc1 (stereo not shown) [5g, N-(4-(1-Acetyl-5-(furan-2-yl)-4,5-dihydro-1H-pyrazol-3-yl)phenyl)-2-(4-(4-methoxy-phenyl)piperazin-1-yl)acetamide] | times less effective as EGFR inhibitors than erlotinib (EGFR-TK): at least 10 times; IC50 (EGFR-TK; EGFR IC50 ± SEM): 2.38 µM; IC50 (HER2-TK): 1.54 µM
18 | 41.3 ± 2.4 | 20.4 ± 1.5 | 49.6 ± 2.8 | – | O=C(CN1CCN(c2ccc(Cl)cc2)CC1)Nc1ccc(C(=O)C=Cc2ccccc2)cc1 [4h, 2-(4-(4-Chlorophenyl)piperazin-1-yl)-N-(4-cinnamoylphenyl)acetamide] | –
19 | 9.68 ± 0.8 | 16.2 ± 1.3 | 18.6 ± 1.5 | 13 | COc1ccc(C2CC(c3ccc(NC(=O)CN4CCN(c5ccc(OC)cc5)CC4)cc3)=NN2C(C)=O)cc1 (stereo not shown) [5c, N-(4-(1-Acetyl-5-(4-methoxyphenyl)-4,5-dihydro-1H-pyrazol-3-yl)phenyl)-2-(4-(4-methoxyphenyl)piperazin-1-yl)acetamide] | –
20 | – | – | – | 5 | COc1cccc2c1C(=O)c1c(O)c3c(c(O)c1C2=O)C[C@@](O)(C(=O)CO)C[C@@H]3O[C@H]1C[C@H](N)[C@H](O)[C@H](C)O1 [Doxorubicin, reference compound] | –
21 | 24.2 ± 1.7 | 61.4 ± 3.5 | 29.1 ± 1.9 | – | COc1ccc(N2CCN(CC(=O)Nc3ccc(C(=O)C=Cc4cc(OC)c(OC)c(OC)c4)cc3)CC2)cc1 [4d, 2-(4-(4-Methoxyphenyl)piperazin-1-yl)-N-(4-(3-(3,4,5-trimethoxyphenyl)acryloyl)phenyl)acetamide] | –
22 | 52.5 ± 2.9 | 73.9 ± 3.8 | 64.8 ± 3.5 | – | COc1ccc(N2CCN(CC(=O)Nc3ccc(C(=O)C=Cc4ccc(Br)cc4)cc3)CC2)cc1 [4e, N-(4-(3-(4-Bromophenyl)acryloyl)phenyl)-2-(4-(4-methoxyphenyl)piperazin-1-yl)acetamide] | –
23 | 35.8 ± 2.2 | 55.2 ± 3.2 | 44.8 ± 2.6 | – | O=C(CN1CCN(c2ccc(Cl)cc2)CC1)Nc1ccc(C(=O)C=Cc2ccc(Cl)cc2Cl)cc1 [4m, 2-(4-(4-Chlorophenyl)piperazin-1-yl)-N-(4-(3-(2,4dichlorophenyl)acryloyl)phenyl)acetamide] | –
24 | 72.4 ± 3.7 | 78.2 ± 4 | 68.6 ± 3.7 | – | COc1ccc(N2CCN(CC(=O)Nc3ccc(C(=O)C=Cc4ccccc4)cc3)CC2)cc1 [4a, N-(4-Cinnamoylphenyl)-2-(4-(4-methoxyphenyl)piperazin-1-yl)acetamide] | –
25 | 85.4 ± 4.6 | 87.6 ± 4.3 | 74.9 ± 4.1 | – | CC(=O)N1N=C(c2ccc(NC(=O)CN3CCN(c4ccc(Cl)cc4)CC3)cc2)CC1c1ccccc1 (stereo not shown) [5h, N-(4-(1-Acetyl-5-phenyl-4,5-dihydro-1H-pyrazol-3-yl)phenyl)-2-(4-(4-chloro-phenyl)piperazin-1-yl)acetamide] | –
26 | 9.37 ± 0.7 | 14.2 ± 1.2 | 17.3 ± 1.4 | 12 | COc1ccc(N2CCN(CC(=O)Nc3ccc(C(=O)C=Cc4ccco4)cc3)CC2)cc1 [4g, N-(4-(3-(Furan-2-yl)acryloyl)phenyl)-2-(4-(4-methoxyphenyl)piperazin-1-yl)acetamide] | fold less potent than 4n, MCF-7 (MCF-7): 2 fold; fold less potent than compound 4n (GI50) [1]: 1.7; fold less potent than 4n, MDAMB-231 (MDAMB-231): 2 fold
27 | 28.3 ± 1.8 | 34.5 ± 2.1 | 18.1 ± 1.4 | – | COc1ccc(C=CC(=O)c2ccc(NC(=O)CN3CCN(c4ccc(OC)cc4)CC3)cc2)cc1 [4c, N-(4-(3-(4-Methoxyphenyl)acryloyl)phenyl)-2-(4-(4-methoxyphenyl)piperazin-1-yl)acetamide] | –
